According to US20220280561A1, “COPPER-ATSM FOR TREATING NEURODEGENERATIVE DISORDERS ASSOCITED WITH MITOCHONDRIAL DYSFUNCTION” (RESEARCH INSTITUTE AT NATIONWIDE CHILDREN'S HOSPITAL, priority 2019, published 2022):

What was measured:
Assay type in all cases: cell-based, human
Nav1.2 = Nav1.2 staining of SCN2A-1 patient induced neurons; details: SCN2A-1 induced neurons treated on day 5 and 7 of differentiating
Protocol: Next, SCN2A patient brain organoids were treated with CuATSM and RNA Seq analysis was performed. […] Uniform manifold approximation and projection (UMAP) for dimension reduction was used for visualization. […] Importantly, expression of SCN2A gene is reduced upon treatment with CuATSM (FIG. 18D). These findings were confirmed by directly differentiating the same patient fibroblasts (SCN2A-1) into induced neurons. Neurons were treated with CuATSM on day 5 and 7 of differentiating then stained for Nav1.2. […] Thus CuATSM can also downregulate SCN2A expression in […] which may add additional therapeutic benefit for these patients.

ALS iAstrocytes = test: Seahorse glycolysis (glycoPER), mitochondrial coupling and fuel dependency in iAstrocytes
Protocol: Oxygen consumption rate (OCR) and extracellular acidification rate (ECAR) were used to calculate glycolytic […] efflux rate (glycoPER), which quantifies media acidification by lactate production. Total cellular glycolysis (FIG. 12B) is measured following mitochondrial shutdown (difference between basal and AA/Rot injection). Percent mitochondrial coupling (FIG. 12C) was calculated using values from basal and/or ATP-linked respiration using data from FIG. 2. […] Dashed bars indicate patient lines classified as nonresponders in co-culture assay. Dotted line represents average control values. Data represents a minimum of 3 independent experiments. Statistical analysis was performed using one way ANOVA comparing average controls.
The impact of CuATSM on mitochondrial activity and glycolysis was assessed using the Seahorse. iAstrocytes were seeded on a 24 or 96 well Seahorse plate for extracellular flux analysis. Oxygen consumption rate (OCR) and extracellular acidification rate (ECAR) were used to calculate glycolytic […] efflux rate (glycoPER), which quantifies media acidification by lactate production. Total cellular glycolysis (FIG. 13A) is measured following inhibition of mitochondrial electron transport chain. Mitochondrial coupling (FIG. 13B) was calculated using values for basal and/or ATP-linked respiration obtained from FIG. 3. Dashed bars indicate patient lines classified as nonresponders in co-culture assay. […] In addition, slight mitochondrial uncoupling was observed which may explain the previously observed reduction in mitochondrial activity. Dotted line represents average control values. Data for FIGS. 13A-13B represents a minimum of 3 independent experiments. Statistical analysis was performed using a student t-test comparing treated lines against corresponding untreated controls.
The effect of CuATSM on mitochondrial dependency on glutamine (FIG. 16A), fatty acid (FIG. 16B) and glucose (FIG. 16C) oxidation is determined using the Seahorse. Basal oxygen consumption (OCR) was measured for three time points followed by a pathway specific inhibitor (UK5099, etomoxir, BPTES). The difference in OCR following inhibitor addition determines mitochondrial fuel dependency on specific pathway tested. […] Dotted line represents average control values. Data represents a minimum of 3 independent experiments. Statistical analysis was performed using one way ANOVA comparing the average of controls.
Astrocytes provide critical metabolic support for motor neurons by releasing lactate that can be used as a source of energy, thus glycolysis is a key metabolic phenotype of astrocytes. […] Based on these observations it was next determined whether CuATSM was impacting mitochondrial coupling. […]

SCN2A iAstrocytes = test: Seahorse basal and ATP-linked respiration, SCN2A iAstrocytes; details: SCN2A iAstrocytes vs corresponding untreated controls; restored to healthy levels
Protocol: Astrocytes treated with and without CuATSM were seeded on a 96 well Seahorse plate for extracellular flux analysis. Basal oxygen consumption (FIG. 6A) was measured at three time points followed by ATP synthase inhibition using oligomycin. The difference between basal respiration and oligomycin addition was used to calculate ATP linked respiration (FIG. 6B). […] All experiments were run at least in duplicate. Statistical analysis comparing treated and untreated individual patient lines was performed using student T-test.
Mitochondrial function: Induced astrocytes were seeded on 24 well seahorse plates in quadruplicate or a 96 well seahorse plate in quintuplicate as summarized in FIG. 9C. Twenty-four hours later media was replaced with seahorse base media containing 10 Mm glucose and 2 Mm glutamine. Oligomycin (1 Um), FCCP (5 Um) and antimycin A (10 Um) were injected separately to evaluate oxygen consumption following inhibition of the ATPase synthase, mitochondrial uncoupling and total shutdown of the electron transport chain. Alternatively, iAstrocyte media was replaced with a mitochondrial buffer (220 Mm mannitol, 70 Mm sucrose, 10 Mm KH2PO4, 5 Mm Hepes, 1 Mm EGTA and 0.2% Fatty acid free BSA) to measure complex IV dependent oxygen consumption. […] Oxygen consumption was measured in both assays using the Seahorse XF and Seahorse XFe. […]

## CN=C([S-])N/N=C(C)/C(C)=N/NC([S-])=NC.[Cu+2] [CuATSM, diacetyl-bis(4-methylthiosemicarbazonato) copperII]
Nav1.2
  Nav1.2 protein levels: reduced
ALS iAstrocytes; CuATSM nonresponders
  mitochondrial dependency on glucose: not changed
ALS iAstrocytes; all iAstrocytes treated with CuATSM
  mitochondrial coupling: modest, yet significant reduction in coupling
ALS iAstrocytes; every cell line tested, including responders, nonresponders and healthy controls
  cellular glycolysis: significant increase in cellular glycolysis
ALS iAstrocytes; patient iAstrocytes, changes are patient specific
  mitochondrial dependency on glutamine, fatty acid and glucose oxidation: does not impact mitochondrial metabolic dependency
SCN2A iAstrocytes
  ATP-linked respiration: reduced
  basal respiration: reduced
